According to patent US11136321B2, “Tricyclic compounds” (ALIGOS THERAPEUTICS, INC., priority 2019, dated 2021):

System: HBV
Assay: HBV-DNA antiviral assay using HepG2.117 cells
Type: cell-based, genotype D HBV
Conditions: intracellular HBV DNA by qPCR, 3 days incubation
Protocol: The following assay procedure describes the HBV antiviral assay, using HepG2.117 cells, which carry a stably integrated genotype D HBV genome under the control of a Tet-off promoter, and intracellular HBV DNA quantification as endpoint. Cell viability is assessed in parallel by measuring the intracellular ATP content using ATPlite (Perkin Elmer).
On day 0, HepG2.117 cells (which are maintained in routine cell culture with doxycycline present in the medium at a final concentration of 1 μg/mL) were seeded in 96-well plates (white with clear bottom) at a density of 2.0×10^4 cells/well (0.1 mL/well) in medium without doxycycline to induce pgRNA transcription and subsequent formation of HBV particles. The cells were incubated at 37° C. and 5% CO2.
On day 1, medium was removed from each well, the test articles were diluted in culture medium without doxcycyline and 100 μL was added to cell culture wells (9 concentrations, 4-fold dilution). For each plate, 6 untreated (merely DMSO) wells were included. The final concentration of DMSO in the culture medium was 2%. Each plate was prepared in duplicate (one for HBV DNA extraction, one for ATPlite measurement). The cells were incubated at 37° C. and 5% CO2 for 3 days.
On day 4, cell viability was assessed using ATPlite and cell lysates were prepared for HBV DNA extraction and subsequent quantification by qPCR.
Medium was removed from each well and 100 μL of 0.33% NP-40 in H2O was added to each well. Plates were sealed, incubated at 4° C. for 5 mins, vortexed extensively and centrifuged briefly. Next, 35 μL of lysate was added to 65 μL QuickExtract DNA Extraction Solution (Epicentre) in a PCR plate for each well. PCR plate was incubated at 65° C. for 6 mins, 98° C. for 2 mins and finally cooled to 4° C. HBV DNA was then quantified by qPCR with HBV-specific primers and probes as specified in Table 1 using the Bio-Rad SSOAdvanced Universal Probes Supermix on a CFX96 machine (Bio-Rad). The PCR cycle program consisted of 95° C. for 3 mins, followed by 40 cycles at 95° C. for 10 sec and 60° C. for 30 sec.
A DNA standard was prepared by dilution of an IDT gBlock corresponding to the amplicon with concentrations ranging from 10^2 to 10^8 copies/input (i.e. per 4 μL) and used to generate a standard curve by plotting Cq values vs. HBV DNA standard concentration. The quantity of HBV DNA in each sample was determined by interpolating from the standard curve.
Cell viability was calculated as follows: % Cell viability=(luminescence value of test sample)/(average luminescence value of 2% DMSO control)×100%. HBV DNA inhibition was calculated as follows: 100−(HBV DNA copy number of test sample)/(average HBV DNA copy number of 2% DMSO control)×100%. No normalization to entecavir was required due to the excellent dynamic window of this assay. The CC50, EC50 and EC90 values were determined by dose-response curves fitted by GraphPad Prism using “log (agonist) vs. response—Variable slope”.

CNC(=O)c1ccc(-n2c(=O)c3c(n4ncc(Cc5ccccc5)c24)CN(C(=O)c2ccc(Br)c(Cl)c2)C(C)C3)cc1 (single isomer, unassigned) [Compound 71, 4-[(11R*)-5-benzyl-12-(4-bromo-3-chlorobenzoyl)-11-methyl-8-oxo-2,3,7,12-tetraazatricyclo[7.4.0.0^[2,6]]trideca-1(9),3,5-trien-7-yl]-N-methylbenzamide]
EC50: ≤ 100 nM

CNC(=O)c1ccc(-n2c(=O)c3c(n4ncc(Cc5ccccc5)c24)CN(C(=O)c2ccc(Br)c(Cl)c2)C(C)C3)cc1 (single isomer, unassigned) [Compound 72, 4-[(11S*)-5-benzyl-12-(4-bromo-3-chlorobenzoyl)-11-methyl-8-oxo-2,3,7,12-tetraazatricyclo[7.4.0.0^[2,6]]trideca-1(9),3,5-trien-7-yl]-N-methylbenzamide]
EC50: ≤ 100 nM

CNC(=O)c1ccc(-n2c(=O)c3c(n4ncc([C@H](C)c5ccccc5)c24)CN(C(=O)c2ccc(Br)c(C#N)c2)CC3)cc1 (stereo in doubt) [Compound 57, 4-[12-(4-bromo-3-cyano-benzoyl)-8-oxo-5-[rac-(1R)-1-phenylethyl]-2,3,7,12-tetrazatricyclo [7.4.0.0 2,6]trideca-1(9),3,5-trien-7-yl]-N-methyl-benzamide]
EC50 (Hepatitis B virus, 72 h): ≤ 100 nM

CNC(=O)c1ccc(-n2c(=O)c3c(n4ncc([C@@H](C)c5ccccc5)c24)CN(C(=O)c2ccc(Br)c(C#N)c2)CC3)cc1 (stereo in doubt) [Compound 58, 4-[12-(4-bromo-3-cyano-benzoyl)-8-oxo-5-[rac-(1S)-1-phenylethyl]-2,3,7,12-tetrazatricyclo [7.4.0.0 2,6]trideca-1(9),3,5-trien-7-yl]-N-methyl-benzamide]
EC50 (Hepatitis B virus, 72 h): ≤ 100 nM

CNC(=O)c1ccc(-n2c(=O)c3c(n4ncc(N[C@@H](C)c5ccccc5)c24)CN(C(=O)c2ccc(Br)c(Cl)c2)CC3)cc1 (stereo in doubt) [Compound 74, 4-[12-(4-bromo-3-chloro-benzoyl)-8-oxo-5-[[rac-(1S)-1-phenylethyl]amino]-2,3,7,12-tetrazatricyclo [7.4.0.0 2,6]trideca-1(9),3,5-trien-7-yl]-N-methyl-benzamide]
EC50 (Hepatitis B virus, 72 h): ≤ 100 nM

CNC(=O)c1ccc(-n2c(=O)c3c(n4ncc(N[C@H](C)c5ccccc5)c24)CN(C(=O)c2ccc(Br)c(Cl)c2)CC3)cc1 (stereo in doubt) [Compound 79, 4-[12-(4-bromo-3-chloro-benzoyl)-8-oxo-5-[[rac-(1R)-1-phenylethyl]amino]-2,3,7,12-tetrazatricyclo [7.4.0.0 2,6]trideca-1(9),3,5-trien-7-yl]-N-methyl-benzamide]
EC50 (Hepatitis B virus, 72 h): 100 to 500 nM

CNC(=O)c1ccc(-n2c(=O)c3c(n4ncc(Cc5ccccc5)c24)CN(C(=O)c2ccc(Br)c(C#N)c2)[C@@H](C)C3)cc1 (stereo in doubt) [Compound 80, N-methyl-4-[rac-(11S)-5-benzyl-12-(4-bromo-3-cyano-benzoyl)-11-methyl-8-oxo-2,3,7,12-tetrazatricyclo [7.4.0.0 2,6]trideca-1(9),3,5-trien-7-yl] benzamide]
EC50 (Hepatitis B virus, 72 h): 100 to 500 nM

CNC(=O)c1ccc(-n2c(=O)c3c(n4ncc(Cc5ccccc5)c24)CN(C(=O)c2ccc(Br)c(C#N)c2)[C@H](C)C3)cc1 (stereo in doubt) [Compound 81, N-methyl-4-[rac-(11R)-5-benzyl-12-(4-bromo-3-cyano-benzoyl)-11-methyl-8-oxo-2,3,7,12-tetrazatricyclo [7.4.0.0 2,6]trideca-1(9),3,5-trien-7-yl] benzamide]
EC50 (Hepatitis B virus, 72 h): ≤ 100 nM

Cn1c(=O)c2c(n3nccc13)CN(C(=O)Nc1ccc(F)c(Cl)c1)CC2 [Compound 1, N-(3-chloro-4-fluorophenyl)-4-methyl-5-oxo-5,6,7,9-tetrahydropyrazolo[1,5-a]pyrido[4,3-e]pyrimidine-8(4H)-carboxamide]
EC50 (Hepatitis B virus, 72 h): 500 to 5000 nM

O=C(Nc1ccc(F)c(Cl)c1)N1CCc2c(n3nccc3n(Cc3ccccc3)c2=O)C1 [Compound 2, 4-benzyl-N-(3-chloro-4-fluorophenyl)-5-oxo-5,6,7,9-tetrahydropyrazolo[1,5-a]pyrido[4,3-e]pyrimidine-8(4H)-carboxamide]
EC50 (Hepatitis B virus, 72 h): 500 to 5000 nM

O=C(c1ccc(Br)cc1)N1CCc2c(n3nccc3n(-c3ccccc3)c2=O)C1 [Compound 3, 8-(4-bromobenzoyl)-4-phenyl-6,7,8,9-tetrahydropyrazolo[1,5-a]pyrido[4,3-e]pyrimidin-5(4H)-one]
EC50 (Hepatitis B virus, 72 h): > 5000 nM

O=C(c1ccc(Br)c(F)c1)N1CCc2c(n3nccc3n(-c3ccccc3)c2=O)C1 [Compound 4, 8-(4-bromo-3-fluorobenzoyl)-4-phenyl-6,7,8,9-tetrahydropyrazolo[1,5-a]pyrido[4,3-e]pyrimidin-5(4H)-one]
EC50 (Hepatitis B virus, 72 h): > 5000 nM

O=C(c1ccc(Br)c(Cl)c1)N1CCc2c(n3nccc3n(-c3ccccc3)c2=O)C1 [Compound 5, 12-(4-bromo-3-chlorobenzoyl)-7-phenyl-2,3,7,12-tetraazatricyclo[7.4.0.0^[2,6]]trideca-1(9),3,5-trien-8-one]
EC50: 500 to 5000 nM

O=C(c1ccc(Br)c(Cl)c1)N1CCc2c(n3nccc3n(Cc3ccccc3)c2=O)C1 [Compound 6, 7-benzyl-12-(4-bromo-3-chlorobenzoyl)-2,3,7,12-tetraazatricyclo[7.4.0.0^[2,6]]trideca-1(9),3,5-trien-8-one]
EC50: 500 to 5000 nM

Cc1cc2n(-c3ccccc3)c(=O)c3c(n2n1)CN(C(=O)c1ccc(Br)c(F)c1)CC3 [Compound 7, 12-(4-bromo-3-fluorobenzoyl)-4-methyl-7-phenyl-2,3,7,12-tetraazatricyclo[7.4.0.0^[2,6]]trideca-1(9),3,5-trien-8-one]
EC50: > 5000 nM

Cc1cnn2c3c(c(=O)n(-c4ccccc4)c12)CCN(C(=O)c1ccc(Br)c(F)c1)C3 [Compound 8, 12-(4-bromo-3-fluorobenzoyl)-5-methyl-7-phenyl-2,3,7,12-tetraazatricyclo[7.4.0.0^[2,6]]trideca-1(9),3,5-trien-8-one]
EC50 (Hepatitis B virus, 72 h): 500 to 5000 nM

O=C(c1ccc(Br)c(F)c1)N1CCc2c(n3ncc(Cc4ccccc4)c3n(-c3ccccc3)c2=O)C1 [Compound 9, 5-benzyl-12-(4-bromo-3-fluorobenzoyl)-7-phenyl-2,3,7,12-tetraazatricyclo[7.4.0.0^[2,6]]trideca-1(9),3,5-trien-8-one]
EC50 (Hepatitis B virus, 72 h): 100 to 500 nM

Cc1cnn2c3c(c(=O)n(-c4ccccc4)c12)CCN(C(=O)c1ccc(Br)c(Cl)c1)C3 [Compound 10, 12-(4-bromo-3-chlorobenzoyl)-5-methyl-7-phenyl-2,3,7,12-tetraazatricyclo[7.4.0.0^[2,6]]trideca-1(9),3,5-trien-8-one]
EC50 (Hepatitis B virus, 72 h): 100 to 500 nM

O=C(c1ccc(Br)c(Cl)c1)N1CCc2c(n3nc(Cc4ccccc4)cc3n(-c3ccccc3)c2=O)C1 [Compound 11, 4-benzyl-12-(4-bromo-3-chlorobenzoyl)-7-phenyl-2,3,7,12-tetraazatricyclo[7.4.0.0^[2,6]]trideca-1(9),3,5-trien-8-one]
EC50: > 5000 nM

O=C(c1ccc(Br)c(Cl)c1)N1CCc2c(n3ncc(Cc4ccccc4)c3n(-c3ccccc3)c2=O)C1 [Compound 12, 5-benzyl-12-(4-bromo-3-chlorobenzoyl)-7-phenyl-2,3,7,12-tetraazatricyclo[7.4.0.0^[2,6]]trideca-1(9),3,5-trien-8-one]
EC50 (Hepatitis B virus, 72 h): 100 to 500 nM

CC(C)c1cnn2c3c(c(=O)n(-c4ccccc4)c12)CCN(C(=O)c1ccc(Br)c(Cl)c1)C3 [Compound 13, 12-(4-bromo-3-chlorobenzoyl)-5-isopropyl-7-phenyl-2,3,7,12-tetraazatricyclo[7.4.0.0^[2,6]]trideca-1(9),3,5-trien-8-one]
EC50 (Hepatitis B virus, 72 h): 500 to 5000 nM
